Here are results for 19 molecules from patent US8071587B2, “(Dihydro)imidazoiso[5,1-A]quinolines” (N. V. Organon, priority 2009, dated 2011).

Molecules are shown by their SMILES. Counter-ions that a name gives are not always drawn.

Turning to `C=CCN1CCN(C(=O)c2nc(-c3cccs3)c3n2CCc2cc(OC)c(OC(C)C)cc2-3)CCC1=O` (as salt: salt) [Example 28, 4-Allyl-1-(9-isopropoxy-8-methoxy-1-thiophen-2-yl-5,6-dihydro-imidazo[5,1-a]isoquinoline-3-carbonyl)-[1,4]diazepan-5-one], the melting point lay within 115 to 117 °C.

In the case of `COc1cc2c(cc1Br)-c1c(-c3cccs3)nc(C(=O)N(C)C(C)(C)C)n1CC2` [Example 1j, 9-Bromo-8-methoxy-1-thiophen-2-yl-5,6-dihydro-imidazo[5,1-a]isoquinoline-3-carboxylic acid tert-butyl-methyl-amide], the melting point is 160 to 161 °C.

Molecule `COc1cc2c(cc1-c1ccccn1)-c1c(-c3cccs3)nc(C(=O)N(C)C(C)(C)C)n1CC2` [Example 2b, 8-Methoxy-9-pyridin-2-yl-1-thiophen-2-yl-5,6-dihydro-imidazo[5,1-a]isoquinoline-3-carboxylic acid tert-butyl-methyl-amide] gave a melting point of 176 to 177 °C.

Consider `COc1cc2c(cc1-c1cccc(F)n1)-c1c(-c3cccs3)nc(C(=O)N(C)C(C)(C)C)n1CC2` [Example 2c, 9-(6-Fluoro-pyridin-2-yl)-8-methoxy-1-thiophen-2-yl-5,6-dihydro-imidazo[5,1-a]isoquinoline-3-carboxylic acid tert-butyl-methyl-amide], for which the melting point fell in the range of 161 to 162 °C.

As to `COc1cc2c(cc1-c1cccc(NC(C)=O)c1)-c1c(-c3cccs3)nc(C(=O)N(C)C(C)(C)C)n1CC2` [Example 2f, 9-(3-Acetylamino-phenyl)-8-methoxy-1-thiophen-2-yl-5,6-dihydro-imidazo[5,1-a]isoquinoline-3-carboxylic acid tert-butyl-methyl-amide], the melting point amounted to 123 °C.

`COc1cc2c(cc1-c1cccc(-n3cccn3)c1)-c1c(-c3cccs3)nc(C(=O)N(C)C(C)(C)C)n1CC2` [Example 2g, 8-Methoxy-9-(3-pyrazol-1-yl-phenyl)-1-thiophen-2-yl-5,6-dihydro-imidazo[5,1-a]isoquinoline-3-carboxylic acid tert-butyl-methyl-amide] displayed a melting point of 180 °C.

Take `COc1cc2c(cc1-c1cccc(N3CCOCC3)c1)-c1c(-c3cccs3)nc(C(=O)N(C)C(C)(C)C)n1CC2` [Example 2h, 8-Methoxy-9-(3-morpholin-4-yl-phenyl)-1-thiophen-2-yl-5,6-dihydro-imidazo[5,1-a]isoquinoline-3-carboxylic acid tert-butyl-methyl-amide]: the melting point lay in the range of 85 to 90 °C.

The molecule `COc1cc2c(cc1-c1cccc(F)c1)-c1c(-c3cccs3)nc(C(=O)N(C)C(C)(C)C)n1CC2` [Example 2i, 9-(3-Fluoro-phenyl)-8-methoxy-1-thiophen-2-yl-5,6-dihydro-imidazo[5,1-a]isoquinoline-3-carboxylic acid tert-butyl-methyl-amide] registered a melting point of 165 °C.

As for `COc1cc2c(cc1-c1cccc(N)c1)-c1c(-c3cccs3)nc(C(=O)N(C)C(C)(C)C)n1CC2` [Example 2k, 9-(3-Amino-phenyl)-8-methoxy-1-thiophen-2-yl-5,6-dihydro-imidazo[5,1-a]isoquinoline-3-carboxylic acid tert-butyl-methyl-amide], the melting point stood at 213 °C.

Molecule `COc1cc2c(cc1-c1cccc(N(C)C)c1)-c1c(-c3cccs3)nc(C(=O)N(C)C(C)(C)C)n1CC2` [Example 2l, 9-(3-Dimethylamino-phenyl)-8-methoxy-1-thiophen-2-yl-5,6-dihydro-imidazo[5,1-a]isoquinoline-3-carboxylic acid tert-butyl-methyl-amide] came in with a melting point of 149 °C.

In turn, `COc1cc2c(cc1-c1c(C)noc1C)-c1c(-c3cccs3)nc(C(=O)N(C)C(C)(C)C)n1CC2` [Example 2m, 9-(3,5-Dimethyl-isoxazol-4-yl)-8-methoxy-1-thiophen-2-yl-5,6-dihydro-imidazo[5,1-a]isoquinoline-3-carboxylic acid tert-butyl-methyl-amide] showed a melting point of 183 to 184 °C.

For the molecule `COc1cc2c(cc1-c1cccc(C(=O)N(C)C)c1)-c1c(-c3cccs3)nc(C(=O)N(C)C(C)(C)C)n1CC2` [Example 2n, 9-(3-Dimethylcarbamoyl-phenyl)-8-methoxy-1-thiophen-2-yl-5,6-dihydro-imidazo[5,1-a]iso-quinoline-3-carboxylic acid tert-butyl-methyl-amide], the melting point stood at 151 °C.

`COc1cc2c(cc1-c1cccc(S(C)(=O)=O)c1)-c1c(-c3cccs3)nc(C(=O)N(C)C(C)(C)C)n1CC2` [Example 2p, 9-(3-Methanesulfonyl-phenyl)-8-methoxy-1-thiophen-2-yl-5,6-dihydro-imidazo[5,1-a]isoquinoline-3-carboxylic acid tert-butyl-methyl-amide] registered a melting point of 216 °C.

As to `COc1ccccc1-c1cc2c(cc1OC)CCn1c(C(=O)N(C)C(C)(C)C)nc(-c3cccs3)c1-2` [Example 2q, 8-Methoxy-9-(2-methoxy-phenyl)-1-thiophen-2-yl-5,6-dihydro-imidazo[5,1-a]isoquinoline-3-carboxylic acid tert-butyl-methyl-amide], the melting point lay in the range of 188 to 189 °C.

For `COc1cc2c(cc1-c1ccc3c(c1)OCO3)-c1c(-c3cccs3)nc(C(=O)N(C)C(C)(C)C)n1CC2` [Example 2r, 9-Benzo[1,3]dioxol-5-yl-8-methoxy-1-thiophen-2-yl-5,6-dihydro-imidazo[5,1-a]isoquinoline-3-carboxylic acid tert-butyl-methyl-amide], the melting point is 162 °C.

`COc1cc2c(cc1C(=O)Nc1nncs1)-c1c(-c3cccs3)nc(C(=O)N(C)C(C)(C)C)n1CC2` [Example 3e, 8-Methoxy-1-thiophen-2-yl-5,6-dihydro-imidazo[5,1-a]isoquinoline-3,9-dicarboxylic acid 3-(tert-butyl-methyl-amide) 9-[1,3,4]thiadiazol-2-ylamide] yielded a melting point of 154 to 156 °C.

Take `CCc1nnc(NC(=O)c2cc3c(cc2OC)CCn2c(C(=O)N(C)C(C)(C)C)nc(-c4cccs4)c2-3)s1` [Example 4, 8-Methoxy-1-thiophen-2-yl-5,6-dihydro-imidazo[5,1-a]isoquinoline-3,9-dicarboxylic acid 3-(tert-butyl-methyl-amide) 9-[(5-ethyl-[1,3,4]thiadiazol-2-yl)-amide]]: the melting point was 238 to 240 °C.

Molecule `COc1cc2c(cc1C(=O)NC(C)C)-c1c(-c3cccs3)nc(C(=O)N(C)C(C)(C)C)n1CC2` [Example 5, 8-Methoxy-1-thiophen-2-yl-5,6-dihydro-imidazo[5,1-a]isoquinoline-3,9-dicarboxylic acid 3-(tert-butyl-methyl-amide) 9-isopropylamide] registered a melting point of 197 to 198 °C.

`COc1cc2c(cc1NC(=O)c1cccnc1)-c1c(-c3cccs3)nc(C(=O)N(C)C(C)(C)C)n1CC2` [Example 9, 8-Methoxy-9-[(pyridine-3-carbonyl)-amino]-1-thiophen-2-yl-5,6-dihydro-imidazo[5,1-a]isoquinoline-3-carboxylic acid tert-butyl-methyl-amide] registered a melting point of 159 to 161 °C.
